Source: patent US10829520B2, “Beta-hairpin peptidomimetics” (POLYPHOR AG, priority 2015, dated 2020)
Read-outs that look alike come from different tables or passages of the source. Where a SMILES comes first, the peptide text is derived from it. Bridges are numbered along the chain shown (N, C = ends). Roman numbers before positions name the chains, in order. [ ]: non-standard residue; d: D form. Tle = CC(C)(C)[C@H](N)C(=O)O; dDab = NCC[C@@H](N)C(=O)O; Nle = CCCC[C@H](N)C(=O)O; Orn = NCCC[C@H](N)C(=O)O; Dab = NCC[C@H](N)C(=O)O; Dap = NC[C@H](N)C(=O)O; Sar = CNCC(=O)O

How the values were obtained:
Format in all cases: cell-based
[1] = system: human red blood cells (hRBC); experiment: Hemolysis of human red blood cells; conditions: red cells of human, 1 h
Method in brief: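 hRBC washed 3× PBS; 20% v/v, ~0.9×10^9 cells/mL final. Peptide 100 μg/mL, 1 h, 37° C., 300 rpm. Spin, supernatant diluted 8×, OD540. 0% = PBS + 0.001% acetic acid; 100% = 2.5% Triton X-100. % hemolysis = OD540 peptide/OD540 full lysis × 100.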

[2] = system: Klebsiella pneumoniae 968733
[3] = system: Pseudomonas aeruginosa ATCC 27853; conditions: ATCC 27853
Method in brief: (§1)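 Peptide stocks (1 mg/mL, water) were diluted two-fold into MH-II broth with 0.002% P-80 and mixed with approx. 10^6 CFU/mL bacteria. Plates were read visually after 18-20 hours at 35° C, with MIC expressed in μg/mL per CLSI.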

Escherichia coli 926415 = system: Escherichia coli 926415
[4] = system: Acinetobacter baumannii DSM 30008; conditions: DSM 30008
Method in brief: as §1

[5] = system: Klebsiella pneumoniae SSI #3010; conditions: SSI #3010
Method in brief: as §1

[6] = system: Escherichia coli ATCC 25922; conditions: ATCC 25922
Method in brief: as §1

[7] = system: Acinetobacter baumannii 872842
[8] = clinical isolate, Mueller-Hinton II broth, P-80 0.002% present
[9] = clinical isolate, Mueller-Hinton II broth, measured in absence of P-80

| Molecule | Hemolysis at 100 μg/mL [1]; 100 [%] | Klebsiella pneumoniae 968733 MIC [2]; 968733 [mg/L] | Pseudomonas aeruginosa ATCC 27853 MIC [3] [mg/L] | Escherichia coli 926415 MIC (Escherichia coli 926415; 926415) [mg/L] | Acinetobacter baumannii DSM 30008 MIC [4] [mg/L] | Klebsiella pneumoniae SSI #3010 MIC [5] [mg/L] | Escherichia coli ATCC 25922 MIC [6] [mg/L] | Acinetobacter baumannii 872842 MIC [7]; 872842 [mg/L] | Hemolysis at 100 μg/mL ([1]; 100 μg/mL) [%] | Klebsiella pneumoniae 968733 MIC [2, 8] [mg/L] | Klebsiella pneumoniae 968733 MIC [2, 9] [mg/L] | Escherichia coli 926415 MIC (Escherichia coli 926415; [8]) [mg/L] | Escherichia coli 926415 MIC (Escherichia coli 926415; [9]) [mg/L] | Acinetobacter baumannii 872842 MIC [7, 8] [mg/L] | Acinetobacter baumannii 872842 MIC [7, 9] [mg/L] |
| --- | --- | --- | --- | --- | --- | --- | --- | --- | --- | --- | --- | --- | --- | --- | --- |
| CCCC[C@@H]1NC(=O)[C@@H]2CCCN2C(=O)[C@H]2CCCN2C(=O)[C@H](CO)NC(=O)[C@H](C)NC(=O)[C@H](C(C)(C)C)NC(=O)[C@H](CCN)NC(=O)[C@H](Cc2c[nH]c3ccccc23)NC(=O)[C@H](CCN)NC(=O)[C@@H](CCC(=O)N[C@H]2CCNC(=O)[C@H]([C@@H](C)O)NC(=O)[C@H](CCN)NC(=O)[C@H](CCN)NC(=O)[C@H](CC(C)C)NC(=O)[C@@H](Cc3ccccc3)NC(=O)[C@H](CCN)NC2=O)NC(=O)[C@H](CCCN)NC(=O)[C@H](CCN)NC(=O)[C@H](Cc2ccc(O)cc2)NC(=O)[C@H](CO)NC1=O [Ex. 1] (I: cyclo([Nle]SY[Dab][Orn][dE][Dab]W[Dab][Tle]AS[dP]P) / II: [Dab][Dab][dF]L[Dab][Dab]T; amide I:6-II:N; lactam II:1-II:C) | 1 | 4 | 0.5 | 1 | 0.125 | 0.5 | 0.25 | 2 | – | – | – | – | – | – | – |
| CCCC[C@@H]1NC(=O)[C@@H]2CCCN2C(=O)[C@H]2CCCN2C(=O)[C@H](CO)NC(=O)[C@H](C)NC(=O)[C@H](C(C)(C)C)NC(=O)[C@H](CCN)NC(=O)[C@H](Cc2c[nH]c3ccccc23)NC(=O)[C@H](CCN)NC(=O)[C@@H](CCC(=O)N[C@@H](CCN)C(=O)N[C@H]2CCNC(=O)[C@H]([C@@H](C)O)NC(=O)[C@H](CCN)NC(=O)[C@H](CCN)NC(=O)[C@H](CC(C)C)NC(=O)[C@@H](Cc3ccccc3)NC(=O)[C@H](CCN)NC2=O)NC(=O)[C@H](CCCN)NC(=O)[C@H](CCN)NC(=O)[C@H](Cc2ccc(O)cc2)NC(=O)[C@H](CO)NC1=O [Ex. 2] (I: cyclo([Nle]SY[Dab][Orn][dE][Dab]W[Dab][Tle]AS[dP]P) / II: [Dab][Dab][Dab][dF]L[Dab][Dab]T; amide I:6-II:N; lactam II:2-II:C) | 1 | 4 | 0.25 | 2 | 1 | 1 | 0.5 | 2 | – | – | – | – | – | – | – |
| CCCC[C@@H]1NC(=O)[C@@H]2CCCN2C(=O)[C@H]2CCCN2C(=O)[C@H](CO)NC(=O)[C@H](C)NC(=O)[C@H](C(C)(C)C)NC(=O)[C@H](CCN)NC(=O)[C@H](Cc2c[nH]c3ccccc23)NC(=O)[C@H](CCN)NC(=O)[C@H](CCC(=O)N[C@@H](CCN)C(=O)N[C@H]2CCNC(=O)[C@H]([C@@H](C)O)NC(=O)[C@H](CCN)NC(=O)[C@H](CCN)NC(=O)[C@H](CC(C)C)NC(=O)[C@@H](Cc3ccccc3)NC(=O)[C@H](CCN)NC2=O)NC(=O)[C@H](CCCN)NC(=O)[C@H](CCN)NC(=O)[C@H](Cc2ccc(O)cc2)NC(=O)[C@H](CO)NC1=O [Ex. 3] (I: cyclo([Nle]SY[Dab][Orn]E[Dab]W[Dab][Tle]AS[dP]P) / II: [Dab][Dab][Dab][dF]L[Dab][Dab]T; amide I:6-II:N; lactam II:2-II:C) | <1 | 1 | 0.25 | 0.25 | 1 | 0.5 | 0.5 | 2 | – | – | – | – | – | – | – |
| CCCC[C@@H]1NC(=O)[C@@H]2CCCN2C(=O)[C@H]2CCCN2C(=O)[C@H](CO)NC(=O)[C@H](C)NC(=O)[C@H](C(C)(C)C)NC(=O)[C@H](CCN)NC(=O)[C@H](Cc2c[nH]c3ccccc23)NC(=O)[C@H](CCN)NC(=O)[C@H](CC(=O)N[C@@H](CCN)C(=O)N[C@@H](CCN)C(=O)N[C@H]2CCNC(=O)[C@H]([C@@H](C)O)NC(=O)[C@H](CCN)NC(=O)[C@H](CCN)NC(=O)[C@H](CC(C)C)NC(=O)[C@@H](Cc3ccccc3)NC(=O)[C@H](CCN)NC2=O)NC(=O)[C@H](CCCN)NC(=O)[C@H](CCN)NC(=O)[C@H](Cc2ccc(O)cc2)NC(=O)[C@H](CO)NC1=O [Ex. 4] (I: cyclo([Nle]SY[Dab][Orn]D[Dab]W[Dab][Tle]AS[dP]P) / II: [Dab][Dab][Dab][Dab][dF]L[Dab][Dab]T; amide I:6-II:N; lactam II:3-II:C) | 1 | 8 | 0.25 | 1 | 1 | 1 | 1 | 2 | – | – | – | – | – | – | – |
| CCCC[C@@H]1NC(=O)[C@@H]2CCCN2C(=O)[C@H]2CCCN2C(=O)[C@H]([C@@H](C)O)NC(=O)[C@H](CN)NC(=O)[C@H](C(C)(C)C)NC(=O)[C@@H](NC(=O)[C@H](Cc2c[nH]c3ccccc23)NC(C)=O)CSSC[C@@H](C(=O)N[C@@H](CCN)C(=O)N[C@H](C(=O)N[C@@H](CCN)C(=O)N[C@H]2CCNC(=O)[C@H]([C@@H](C)O)NC(=O)[C@H](CCN)NC(=O)[C@H](CCN)NC(=O)[C@H](CC(C)C)NC(=O)[C@@H](Cc3ccccc3)NC(=O)[C@H](CCN)NC2=O)[C@@H](C)O)NC(=O)[C@H](Cc2ccc(O)cc2)NC(=O)CNC1=O [Ex. 19] (Ac-WC[Tle][Dap]T[dP]P[Nle]GYC[Dab]T[Dab][Dab][Dab][dF]L[Dab][Dab]T; disulfide 2-11; lactam 15-C) | – | 0.75 | 1 | 0.25 | 0.25 | 1 | – | 0.75 | <1 | – | – | – | – | – | – |
| CCCC[C@@H]1NC(=O)[C@@H]2CCCN2C(=O)[C@H]2CCCN2C(=O)[C@H]([C@@H](C)O)NC(=O)[C@H](CN)NC(=O)[C@H](C(C)(C)C)NC(=O)[C@@H](NC(=O)[C@H](Cc2c[nH]c3ccccc23)NC(C)=O)CSSC[C@@H](C(=O)N[C@@H](CCN)C(=O)N[C@H](C(=O)N[C@@H](CCN)C(=O)N[C@H]2CCNC(=O)[C@H]([C@@H](C)O)NC(=O)[C@H](CCN)NC(=O)[C@H](CCN)NC(=O)[C@H](CC(C)C)NC(=O)[C@@H](Cc3ccccc3)NC(=O)[C@H](CCN)NC2=O)[C@@H](C)O)NC(=O)[C@H](Cc2ccc(O)cc2)NC(=O)CNC1=O [Ex. 116] (Ac-WC[Tle][Dap]T[dP]P[Nle]GYC[Dab]T[Dab][Dab][Dab][dF]L[Dab][Dab]T; disulfide 2-11; lactam 15-C) | – | 0.5 | 1 | 0.0625 | 0.25 | 0.25 | – | 0.125 | <1 | – | – | – | – | – | – |
| CC(C)C[C@@H]1NC(=O)[C@@H](CC(C)C)NC(=O)[C@H](CCN)NC(=O)[C@@H](NC(=O)[C@@H](CCN)NC(=O)[C@@H]2CSSC[C@H](N)C(=O)N[C@@H](Cc3c[nH]c4ccccc34)C(=O)N[C@@H](CCN)C(=O)N[C@@H](C(C)(C)C)C(=O)N[C@@H](C)C(=O)N[C@@H](CO)C(=O)N3CCC[C@@H]3C(=O)N3CCC[C@H]3C(=O)N[C@@H](CC(C)C)C(=O)N[C@@H](CO)C(=O)N[C@@H](Cc3ccc(O)cc3)C(=O)N[C@@H](CCN)C(=O)N(C)CC(=O)N2)CCNC(=O)[C@H]([C@@H](C)O)NC(=O)[C@H](CCN)NC(=O)[C@H](CCN)NC1=O [Ex. 206] (H-CW[Dab][Tle]AS[dP]PLSY[Dab][Sar]C[dDab][Dab][Dab][dL]L[Dab][Dab]T; disulfide 1-14; lactam 16-C) | – | – | 4 | – | 4 | 1 | 0.5 | – | 1 | – | – | – | – | – | – |
| colistin [reference compound] | – | – | – | – | – | – | – | – | – | >8 | 16 | 8 | 16 | >8 | 64 |
